Experimental data as given in patent US20040076974A1, “Liver necrosis predictive genes” (priority 2002, published 2004).
Like-named read-outs stand apart in the source and are kept apart here.

System: Sprague Dawley rats
Description: Sprague Dawley rats Crl:CD from Charles River, Raleigh, N.C. were divided into treated rats that receive a specific concentration of the compound (see Table 1) and. control rats that only received the vehicle in which the compound is mixed (e.g., saline).
At specified timepoints (6 h, 24 h and 72 h) after administration (intraperitoneal route) of the compound, a set number of rats (usually 3 control and 3 treated) were euthanized and tissues collected. Each, rat was heavily sedated with an overdose of CO2 by inhalation and a maximum amount of blood drawn. Exsanguination of the rat by this drawing of blood kills the rat. The method of collecting the tissues is very important and ensures preserving the quality of the mRNA in the tissues. The body of the rat was then opened up and prosectors rapidly removed the tissues (including) and immediately placed them into liquid nitrogen. […] The organs/tissues were then packaged into well-labeled plastic freezer quality bags and stored at −80 degrees until needed for isolation of the mRNA from a portion of the organ/tissue sample.
Histopathology scores for each animal (assigned on a compound-dose basis as indicated in Table 1) were entered with gene expression data by using the GeneSpring™ ‘Drawn Gene’ function. Correlations between the histopathology scores and gene expression were conducted with the distance measures listed below:
Toxicity classifications were entered for training and test set as a parameter column. Toxicity, as defined by observation of necrosis in the at 72 hours after treatment, was entered as a “yes” or “no” for each animal in a compound-dose group. Additionally, a parameter column for random histopathology classification was designated. This was done by randomly assigning the same number of “yes” and “no” calls to the individual animals.

[1] = rat, intraperitoneal, dose 20 mg/kg, 72 hours after treatment
[2] = rat, intraperitoneal, dose 20 mg/kg, 72 hours; 1 = not remarkable, 2 and higher increasing severity
[3] = Sprague Dawley, rat, in vivo, ip, 250 mg/kg, 72 h
[4] = compound-dose group at 72 h; CCL4 1000, DMN 20, LPS 8
[5] = Sprague Dawley, rat, in vivo, ip, 50 mg/kg, 72 h

CN(Cc1cnc2nc(N)nc(N)c2n1)c1ccc(C(=O)N[C@@H](CCC(=O)O)C(=O)O)cc1 [methotrexate]
Score (histopathology liver necrosis severity score) (Sprague Dawley, rat, in vivo, ip, 5 mg/kg, 72 h): 1
Liver Toxicity Necrosis Classification (rat, in vivo): no
Liver Necrosis (rat, in vivo, ip, 5 mg/kg): no

carboxy methyl cellulose
Liver Necrosis (rat, in vivo, ip, 30 mg/kg): no
Score (histopathology liver necrosis severity score) (rat, in vivo, ip, 30 mg/kg): 1

N.N.[Cl][Pt][Cl] [cisplatin]
Liver Necrosis (rat, intraperitoneal, dose 10 mg/kg, 72 hours after treatment): no
Score (histopathology liver necrosis severity score) (rat, intraperitoneal, dose 10 mg/kg, 72 hours; 1 = not remarkable, 2 and higher increasing severity): 1

CN(N=O)C(=O)N[C@H]1C(O)O[C@H](CO)[C@@H](O)[C@@H]1O (mixture of isomers) [streptozotocin]
Liver Toxicity Necrosis Classification (compound-dose group at 72 h, dose 20): no
Liver Toxicity Necrosis Classification (compound-dose group at 72 h, dose 75): no
Liver Toxicity Necrosis Classification (compound-dose group at 72 h; dose 20): no
Liver Toxicity Necrosis Classification (compound-dose group at 72 h; dose 75): no
Liver Toxicity Necrosis Classification (compound-dosegroup at 72 h, dose 20): no
Liver Toxicity Necrosis Classification (compound-dosegroup at 72 h, dose 75): no
Liver Toxicity Necrosis Classification (compound-dosegroup at 72 h; dose PEG 5000, PUR 38, QUIN 25, STRZ 20): no
Liver Necrosis [1]: no
Score (histopathology liver necrosis severity score) [2]: 1
Liver Necrosis (rat, intraperitoneal, dose 75 mg/kg, 72 hours after treatment): no
Score (histopathology liver necrosis severity score) (rat, intraperitoneal, dose 75 mg/kg, 72 hours; 1 = not remarkable, 2 and higher increasing severity): 1

aflatoxin B1
Liver Necrosis (rat, in vivo, ip, 1 mg/kg): Yes
Score (histopathology liver necrosis severity score) (rat, in vivo, ip, 1 mg/kg): 8

NC(=O)NO [hydroxyurea]
Score (histopathology liver necrosis severity score) [3]: 1
Score (histopathology liver necrosis severity score) (Sprague Dawley, rat, in vivo, ip, 1000 mg/kg, 72 h): 1
Liver Toxicity Necrosis Classification (rat, in vivo): no
Liver Necrosis (rat, in vivo, ip, 250 mg/kg): no
Liver Necrosis (rat, in vivo, ip, 1000 mg/kg): no

CCO [ethanol]
Liver Toxicity Necrosis Classification (rat, in vivo): no
Liver Necrosis (rat, in vivo, ip): no
Score (histopathology liver necrosis severity score) (rat, in vivo, ip): 1

lipopolysaccharide
Liver Toxicity Necrosis Classification (72 h, dose 8): yes
Liver Toxicity Necrosis Classification (72 h; dose 2): no
Liver Toxicity Necrosis Classification (compound-dose group at 72 h, dose 2): no
Liver Toxicity Necrosis Classification (compound-dose group at 72 h, dose 8): yes
Liver Toxicity Necrosis Classification [4]: yes
Liver Toxicity Necrosis Classification (compound-dose group at 72 h; dose 2): no
Liver Toxicity Necrosis Classification (compound-dosegroup at 72 h; dose 2): no
Liver Toxicity Necrosis Classification (compound-dosegroup at 72 h; dose 8): yes
toxicity at the high dose (rat, high dose of Table 1, liver necrosis at 72 hours): produced toxicity
Liver Necrosis (rat, intraperitoneal, dose 2 mg/kg, 72 hours after treatment): no
Score (histopathology liver necrosis severity score) (rat, intraperitoneal, dose 2 mg/kg, 72 hours; 1 = not remarkable, 2 and higher increasing severity): 1
Liver Necrosis (rat, intraperitoneal, dose 8 mg/kg, 72 hours after treatment): Yes
Score (histopathology liver necrosis severity score) (rat, intraperitoneal, dose 8 mg/kg, 72 hours; 1 = not remarkable, 2 and higher increasing severity): 6
toxicity at the low dose (rat, low dose of Table 1, liver necrosis at 72 hours): not at the low dose

c1ccc2c(c1)cc1ccc3cccc4ccc2c1c34 [benzo[a]pyrene]
Liver Toxicity Necrosis Classification (compound-dose group at 72 h; dose 30): no
Liver Necrosis (rat, intraperitoneal, dose 30 mg/kg, 72 hours after treatment): No
Score (histopathology liver necrosis severity score) (rat, intraperitoneal, dose 30 mg/kg, 72 hours; 1 = not remarkable, 2 and higher increasing severity): 1

C=C[C@H]1C[N@@]2CC[C@H]1C[C@@H]2[C@@H](O)c1ccnc2ccc(OC)cc12 [quinidine]
Liver Necrosis (rat, intraperitoneal, dose 25 mg/kg, 72 hours after treatment): no
Score (histopathology liver necrosis severity score) (rat, intraperitoneal, dose 25 mg/kg, 72 hours; 1 = not remarkable, 2 and higher increasing severity): 1
Liver Necrosis (rat, intraperitoneal, dose 100 mg/kg, 72 hours after treatment): no
Score (histopathology liver necrosis severity score) (rat, intraperitoneal, dose 100 mg/kg, 72 hours; 1 = not remarkable, 2 and higher increasing severity): 1

Cn1c(=O)c2[nH]cnc2n(C)c1=O [theophylline]
Score (histopathology liver necrosis severity score) (Sprague Dawley, rat, in vivo, ip, 25 mg/kg, 72 h): 1
Score (histopathology liver necrosis severity score) (Sprague Dawley, rat, in vivo, ip, 100 mg/kg, 72 h): 1
Liver Toxicity Necrosis Classification (rat, in vivo): no
Liver Necrosis (rat, in vivo, ip, 25 mg/kg): no
Liver Necrosis (rat, in vivo, ip, 100 mg/kg): no

O=NN(CCCl)C(=O)NCCCl [carmustine]
Liver Toxicity Necrosis Classification (72 h, dose 16): no
Liver Toxicity Necrosis Classification (72 h; compound-dose group; dose BRB 800, BUS 14, CAD 1, CAR 16): no
Liver Toxicity Necrosis Classification (compound-dose group at 72 h; BUS 14, CAD 1, CAR 16 (dose codes, Table 1)): no
Liver Toxicity Necrosis Classification (compound-dosegroup at 72 h; dose 16): no
Liver Necrosis (rat, intraperitoneal, dose 16 mg/kg, 72 hours after treatment): no
Score (histopathology liver necrosis severity score) (rat, intraperitoneal, dose 16 mg/kg, 72 hours; 1 = not remarkable, 2 and higher increasing severity): 1

C=CCN1CC[C@]23c4c5ccc(O)c4O[C@H]2C(=O)CC[C@@]3(O)[C@H]1C5 [naloxone]
Liver Toxicity Necrosis Classification (rat, in vivo): no
Score (histopathology liver necrosis severity score) (rat, in vivo, ip): 1
Liver Necrosis (rat, intraperitoneal, dose 180 mg/kg, 72 hours after treatment): no
Score (histopathology liver necrosis severity score) (rat, intraperitoneal, dose 180 mg/kg, 72 hours; 1 = not remarkable, 2 and higher increasing severity): 1
Liver Necrosis (rat, intraperitoneal, dose 45 ml/kg, 72 hours after treatment): no

C[C@]12CC[C@@H]3c4ccc(O)cc4CC[C@H]3[C@@H]1CC[C@@H]2O [estradiol]
Score (histopathology liver necrosis severity score) (Sprague Dawley, rat, in vivo, ip, 0.1 mg/kg, 72 h): 1
Score (histopathology liver necrosis severity score) (Sprague Dawley, rat, in vivo, ip, 0.4 mg/kg, 72 h): 1
Liver Toxicity Necrosis Classification (rat, in vivo): no
Liver Necrosis (rat, in vivo, ip, 0.1 mg/kg): no
Liver Necrosis (rat, in vivo, ip, 0.4 mg/kg): no

CS(=O)(=O)OCCCCOS(C)(=O)=O [busulfan]
Score (histopathology liver necrosis severity score) (Sprague Dawley, rat, in vivo, ip, 14 mg/kg, 72 h): 1
Liver Toxicity Necrosis Classification (rat, in vivo): no
Liver Necrosis (rat, in vivo, ip, 14 mg/kg): no

CN(C)N=O [dimethylnitrosamine]
Liver Toxicity Necrosis Classification (72 h, dose 20): yes
Liver Toxicity Necrosis Classification (72 h; dose 20): yes
Liver Toxicity Necrosis Classification [4]: yes
Liver Necrosis [1]: Yes
Score (histopathology liver necrosis severity score) [2]: 9

O=c1[nH]cc(F)c(=O)[nH]1 [5-fluorouracil]
Score (histopathology liver necrosis severity score) (Sprague Dawley, rat, in vivo, ip, 13 mg/kg, 72 h): 1
Score (histopathology liver necrosis severity score) [5]: 1
Liver Toxicity Necrosis Classification (rat, in vivo): no
Liver Necrosis (rat, in vivo, ip, 13 mg/kg): no
Liver Necrosis (rat, in vivo, ip, 50 mg/kg): no

CCOC(=O)C(C)(C)Oc1ccc(Cl)cc1 [clofibrate]
Score (histopathology liver necrosis severity score) (Sprague Dawley, rat, in vivo, ip, 75 mg/kg, 72 h): 1
Score (histopathology liver necrosis severity score) [3]: 1
Liver Toxicity Necrosis Classification (rat, in vivo): no
Liver Necrosis (rat, in vivo, ip, 75 mg/kg): no
Liver Necrosis (rat, in vivo, ip, 250 mg/kg): no

c1ccccc1 [benzene]
Liver Toxicity Necrosis Classification (rat, in vivo): no
Liver Necrosis (rat, in vivo, ip): No
Score (histopathology liver necrosis severity score) (rat, in vivo, ip): 1

Nc1nc(O)c2ncn(COC(CO)CO)c2n1 [gancyclovir]
Score (histopathology liver necrosis severity score) [5]: 1
Score (histopathology liver necrosis severity score) (Sprague Dawley, rat, in vivo, ip, 200 mg/kg, 72 h): 1
Liver Toxicity Necrosis Classification (rat, in vivo): no
Liver Necrosis (rat, in vivo, ip, 50 mg/kg): no
Liver Necrosis (rat, in vivo, ip, 200 mg/kg): no
